Reference: US8986696B2, “Trans-capsular administration of p38 map kinase inhibitors into orthopedic joints” (DePuy Mitek, Inc., priority 2007, dated 2015)

What was measured:
chondrocytes = assay type: cell-based; conditions: bovine, 100000 nM
From the text: (§1) Calf articular cartilage was obtained from the knee joints of eight to twelve month old animals and was processed within twenty-four hours after sacrifice. After removal of muscle and ligament, the cartilage was kept moist using phosphate buffer solution (PBS) to prevent tissue dehydration, and was aseptically peeled off from subchondral bone with a scalpel, and the cartilage pieces were further minced into smaller pieces (˜0.3-0.5×˜0.2-0.5 cm cubes). […] Chondrocytes were then enzymatically isolated from the tissue by incubation for overnight at 37° C. with gentle agitation in 0.2% collagenase in Dulbecco's modified eagle media (DMEM). After removal of tissue debris by filtration through cell strainer and the residual collagenase by 3× wash in PBS, cells were finally resuspended at a density of 2.5×10^6 cells/ml in chondrocyte medium. A 1 ml aliquot of the cell suspension was dispensed into either a 15 ml Falcon centrifuge tube or a 96 deep-well plate and centrifuged at 2000×g for five minutes. The chondrocyte pellets were incubated at 37° C. in a humidified atmosphere of 5% CO2 for two to three weeks with a medium change every other day.
(§2) As an alternative to using calf articular cartilage, a commercial Alginate Recovered Chondrocytes (ARC) system was also used (Articular Engineering, LLC (Northbrook, Ill.)). Use of the commercial system cut down on labor and time in producing chondrocyte pellet. This system produced cartilaginous tissue in vitro using bovine chondrocytes. The first step consisted of culturing chondrocytes in alginate under conditions optimal for the formation of a cell-associated matrix (CM). The second step allowed these cells with their CM, after recovery, to rapidly form and become integrated into a solid mass of cartilage on a porous insert within two weeks. This tissue is rich in cells surrounded by a cell-associated matrix that is degraded rapidly when the cells are exposed to IL-1. ARC tissues in 3 mm punches at delivery were first dispensed into a 96 deep-well plate, one punch per well, for compound treatment. The subsequent procedures were the same as those used for the chondrocyte pellets.
(§3) Chondrocyte pellets were washed once with 1 ml of Chondrocyte Stimulation Medium and equilibrated in the same medium at room temperature for fifteen to thirty minutes. Compounds were dissolved in H2O, Ethanol or dimethyl sulfoxide (DMSO) (10^−2 M) according to suppliers' instructions and further diluted with Chondrocyte Stimulation Medium to the required concentrations. DMSO concentrations in the culture media should not exceed 1%; this concentration of DMSO has no effect on cartilage proteoglycan metabolism in response to cytokines.
The pellets were first treated with compounds at desired concentrations at 37° C. for one hour and then incubated for three to five days in the absence or presence of 10 ng/ml of IL-1β. At the end of the incubation, media and pellets were harvested and frozen for further analysis. Pellets were also fixed as needed in 4% (w/v) paraformaldehyde in PBS for histology analysis.
The LDH activity was determined colorimetrically in an enzymatic test based on the conversion of lactic acid to pyruvate in the presence of chromagenic substrate tetrazolium salt INT that was reduced to formazan.

[1] = system: rabbit anterior cruciate ligament transection (ACLT) model of osteoarthritis; assay: ACLT model, SCIO-469 (Example VIII); assay type: in vivo
Experimental: The formulation of the highest concentration was diluted into the lower concentrations using ORTHOVISC®. Once prepared, the formulations were stored at 4° C. The study design consisted of an n=12 per group. The SCIO-469 (SD 469) was suspended in ORTHOVISC®. A total of 160 μl was injected at each administration. The intra-articular injections were performed according to the ACLT model. However, control groups either received no injections or received the ORTHOVISC® vehicle delivered once weekly for three weeks. Euthanasia was performed according to the ACLT model. However, the animals were euthanized nine weeks post ACLT with an intravenous injection of pentobarbital (60 mg/kg). […] At the time of sacrifice the following parameters were evaluated grossly (the scale follows in parenthesis): Each parameter was given a score. The combination of all parameters gave a Total Score (0-52). […] Lastly, an All Cartilage Effects Score was obtained. The score for All Cartilage Effects ranges from 0 to 40. The grades that compose this parameter are trochlear groove thickness and erosion, all the grades in All Condylar Effects, and all grades listed under tibial plateau. A higher score indicates more damage to the joint. A lower score indicates less damage or more cartilage preservation to the joint. Individual results for each parameter assessed were tabulated (data not shown).

[2] = system: IL-1β-stimulated GAG release, bovine chondrocyte pellets / ARC tissues; assay: chondrocyte pellet culture model: GAG degradation; assay type: cell-based
From the text: as §1, §2, §3
[…] At the end of the incubation, media and pellets were harvested and frozen for further analysis. Pellets were also fixed as needed in 4% (w/v) paraformaldehyde in PBS for histology analysis.
Glycosaminoglycan (GAG) levels in the culture media were determined by measuring the amount of polyanionic material reacting with 1,9-dimethylmethylene blue (DME) as detected by absorbance at 525 nm, using shark chondroitin sulfate as a standard. The DME blue dye-binding solution was prepared by dissolving 16 mg of DME blue in a solution containing 0.304% glycine, 0.23% sodium chloride (NaCl), 9.5 mM hydrochloric acid (HCl), pH=3.0 with absorbance at 525 equal to 0.31. Proteoglycans and proteoglycan metabolites in chondrocyte pellet were released by digesting the pellet with 125 μg/ml of papain in 0.1 M PBS, pH 6.0, 5 mM cysteine, 5 mM ethylene-diamine-tetra-acetic acid disodium salt (Na2EDTA) at 50° C. for overnight. Results are reported as either micrograms of GAG per milliliter or percent of total GAG released into culture medium.

[3] = drug content in the joints (Example VIII); assay type: in vivo, rabbit; conditions: at the time of analysis
From the text: For each treatment group, four animals were included to provide pharmacokinetic data (available drug levels in blood and tissue). Prior to treatment administration, blood samples were collected and frozen for analysis. After gross observation, the joints were removed and frozen for analysis.

C[C@@H]1CN(Cc2ccc(F)cc2)[C@@H](C)CN1C(=O)c1cc2c(C(=O)C(=O)N(C)C)cn(C)c2cc1Cl [SCIO-469 (SD 469)]
increase of LDH level (chondrocytes): 121% | All Cartilage Effects (0-40), mean ([1]; 0.5 μg/kg): 12.75 | All Condylar Effects (0-18), mean ([1]; 0.5 μg/kg): 6.45 | All Tibial Plateau Effects (0-24), mean ([1]; 0.5 μg/kg): 7.20 | All Trochlear Groove Effects (0-10), mean ([1]; 0.5 μg/kg): 8.40 | Femoral Condyle % Surface Area Erosion (Lateral), mean score ([1]; 0.5 μg/kg): 2.80 | Femoral Condyle % Surface Area Erosion (Medial), mean score ([1]; 0.5 μg/kg): 0.90 | Femoral Condyle Depth of Erosion (Lateral), mean score ([1]; 0.5 μg/kg): 2.00 | Femoral Condyle Depth of Erosion (Medial), mean score ([1]; 0.5 μg/kg): 0.55 | Femoral Condyle Presence of Clefts, mean score ([1]; 0.5 μg/kg): 0.20 | Tibial Plateau # of Osteophytes (Lateral), mean score ([1]; 0.5 μg/kg): 1.50 | Tibial Plateau # of Osteophytes (Medial), mean score ([1]; 0.5 μg/kg): 1.80 | Tibial Plateau % Surface Area Erosion (Lateral), mean score ([1]; 0.5 μg/kg): 2.00 | Tibial Plateau % Surface Area Erosion (Medial), mean score ([1]; 0.5 μg/kg): 0 | Tibial Plateau Depth of Erosion (Lateral), mean score ([1]; 0.5 μg/kg): 1.90 | Tibial Plateau Depth of Erosion (Medial), mean score ([1]; 0.5 μg/kg): 0 | Tibial Plateau Presence of Clefts (Lateral), mean score ([1]; 0.5 μg/kg): 0 | Tibial Plateau Presence of Clefts (Medial), mean score ([1]; 0.5 μg/kg): 0 | Total Score (0-52), mean ([1]; 0.5 μg/kg): 22.05 | Trochlear Groove # of Osteophytes, mean score ([1]; 0.5 μg/kg): 3.00 | Trochlear Groove Erosion of Cartilage, mean score ([1]; 0.5 μg/kg): 2.40 | Trochlear Groove Osteophyte Size, mean score ([1]; 0.5 μg/kg): 3.00 | Trochlear Groove Thickening, mean score ([1]; 0.5 μg/kg): 0 | All Cartilage Effects (0-40), mean ([1]; 5 μg/kg): 13.17 | All Condylar Effects (0-18), mean ([1]; 5 μg/kg): 6.50 | All Tibial Plateau Effects (0-24), mean ([1]; 5 μg/kg): 7.08 | All Trochlear Groove Effects (0-10), mean ([1]; 5 μg/kg): 8.08 | Femoral Condyle % Surface Area Erosion (Lateral), mean score ([1]; 5 μg/kg): 1.67 | Femoral Condyle % Surface Area Erosion (Medial), mean score ([1]; 5 μg/kg): 1.67 | Femoral Condyle Depth of Erosion (Lateral), mean score ([1]; 5 μg/kg): 1.96 | Femoral Condyle Depth of Erosion (Medial), mean score ([1]; 5 μg/kg): 1.21 | Femoral Condyle Presence of Clefts, mean score ([1]; 5 μg/kg): 0 | Tibial Plateau # of Osteophytes (Lateral), mean score ([1]; 5 μg/kg): 1.08 | Tibial Plateau # of Osteophytes (Medial), mean score ([1]; 5 μg/kg): 1.67 | Tibial Plateau % Surface Area Erosion (Lateral), mean score ([1]; 5 μg/kg): 1.50 | Tibial Plateau % Surface Area Erosion (Medial), mean score ([1]; 5 μg/kg): 0.58 | Tibial Plateau Depth of Erosion (Lateral), mean score ([1]; 5 μg/kg): 1.63 | Tibial Plateau Depth of Erosion (Medial), mean score ([1]; 5 μg/kg): 0.63 | Tibial Plateau Presence of Clefts (Lateral), mean score ([1]; 5 μg/kg): 0 | Tibial Plateau Presence of Clefts (Medial), mean score ([1]; 5 μg/kg): 0 | Total Score (0-52), mean ([1]; 5 μg/kg): 21.67 | Trochlear Groove # of Osteophytes, mean score ([1]; 5 μg/kg): 2.83 | Trochlear Groove Erosion of Cartilage, mean score ([1]; 5 μg/kg): 2.17 | Trochlear Groove Osteophyte Size, mean score ([1]; 5 μg/kg): 2.92 | Trochlear Groove Thickening, mean score ([1]; 5 μg/kg): 0.17 | All Cartilage Effects (0-40), mean ([1]; 50 μg/kg): 8.32 | All Condylar Effects (0-18), mean ([1]; 50 μg/kg): 4.18 | All Tibial Plateau Effects (0-24), mean ([1]; 50 μg/kg): 5.41 | All Trochlear Groove Effects (0-10), mean ([1]; 50 μg/kg): 6.91 | Femoral Condyle % Surface Area Erosion (Lateral), mean score ([1]; 50 μg/kg): 1.18 | Femoral Condyle % Surface Area Erosion (Medial), mean score ([1]; 50 μg/kg): 1.27 | Femoral Condyle Depth of Erosion (Lateral), mean score ([1]; 50 μg/kg): 1.05 | Femoral Condyle Depth of Erosion (Medial), mean score ([1]; 50 μg/kg): 0.68 | Femoral Condyle Presence of Clefts, mean score ([1]; 50 μg/kg): 0 | Tibial Plateau # of Osteophytes (Lateral), mean score ([1]; 50 μg/kg): 0.91 | Tibial Plateau # of Osteophytes (Medial), mean score ([1]; 50 μg/kg): 1.73 | Tibial Plateau % Surface Area Erosion (Lateral), mean score ([1]; 50 μg/kg): 1.09 | Tibial Plateau % Surface Area Erosion (Medial), mean score ([1]; 50 μg/kg): 0.36 | Tibial Plateau Depth of Erosion (Lateral), mean score ([1]; 50 μg/kg): 1.14 | Tibial Plateau Depth of Erosion (Medial), mean score ([1]; 50 μg/kg): 0.18 | Tibial Plateau Presence of Clefts (Lateral), mean score ([1]; 50 μg/kg): 0 | Tibial Plateau Presence of Clefts (Medial), mean score ([1]; 50 μg/kg): 0 | Total Score (0-52), mean ([1]; 50 μg/kg): 16.50 | Trochlear Groove # of Osteophytes, mean score ([1]; 50 μg/kg): 2.64 | Trochlear Groove Erosion of Cartilage, mean score ([1]; 50 μg/kg): 1.36 | Trochlear Groove Osteophyte Size, mean score ([1]; 50 μg/kg): 2.91 | Trochlear Groove Thickening, mean score ([1]; 50 μg/kg): 0 | utility in ACLT model, gross observations ([1]; 0.5, 5 or 50 μg/kg, direct injection into a diseased joint): did not demonstrate the utility | inhibition of GAG degradation ([2]; ARC tissues stimulated with IL-1β): no effect | GAG Release ([2]; Pellet Assay): No effect | drug content in the joints [3]: no drug could be detected
